According to patent US8598087B2, “Crystalline form of 4-[5-[3-chloro-5-(trifluoromethyl)phenyl]-4, 5-dihydro-5-(trifluoromethyl)-3-isoxazolyl]-N-[2-0X0-2-[(2,2,2-trifluoroethyl)amino]ethyl]-1- naph-thalenecarboxamide” (E. I. du Pont de Nemours and Company, priority 2010, dated 2013):
Entries after “also recorded” stand apart in the source; their conditions may differ.

Assays:
Assay type in all cases: physicochemical
[1] = Interconversion slurry experiments (relative stability of solid forms, XRPD)
Procedure: Interconversion slurry experiments were performed in a variety of solvents at different temperatures. Sufficient amounts of Compound 1 were added to solvents in vials so that excess solid remained. The mixtures were agitated in sealed vials at the selected temperature and the solids were isolated by filtration after the selected time and analyzed by XRPD.

[2] = Physical stability of amorphous Compound 1 (vapor stress and slurry, XRPD)
Procedure: The physical stability of the amorphous material was characterized. […] Amorphous Compound 1 was also slurried in methanol\water (1:1) for 5 days at 60° C. resulting in irregular fragments of crystals determined to be Form B by XRPD.

[3] = Physical stability / hygroscopicity of polymorph Form A (relative humidity exposure); conditions: 5 to 95% relative humidity at 25° C. (5 hours)
Procedure: The physical stability of polymorph Form A was characterized. A samples of Form A exposed to 5 to 95% relative humidity at 25° C.

[4] = Physical stability of polymorph Form B under humidity stress (XRPD)
Vacuum drying experiment = test: Vacuum drying experiment

O=C(CNC(=O)c1ccc(C2=NOC(c3cc(Cl)cc(C(F)(F)F)c3)(C(F)(F)F)C2)c2ccccc12)NCC(F)(F)F (racemic) [Compound 1, 4-[5-[3-chloro-5-(trifluoromethyl)phenyl]-4,5-dihydro-5-(trifluoromethyl)-3-isoxazolyl]-N-[2-oxo-2-[(2,2,2-trifluoroethyl)amino]ethyl]-1-naphthalenecarboxamide]
solid form yielded by slurry (XRPD) ([1]; acetonitrile, 3 days at 83° C.): Pattern G solid
solid form yielded by slurry (XRPD) ([1]; acetonitrile, 8 days at 0° C.): Pattern G solid
solid form yielded by slurry (XRPD) ([1]; acetonitrile/water (9:1), 3 days at 83° C.): polymorph Form B
solid form yielded by slurry (XRPD) ([1]; acetonitrile/water (9:1), 8 days at 0° C.): Pattern G solid

O=C(CNC(=O)c1ccc(C2=NOC(c3cc(Cl)cc(C(F)(F)F)c3)(C(F)(F)F)C2)c2ccccc12)NCC(F)(F)F (centres unmarked) [Amorphous Compound 1, 4-[5-[3-chloro-5-(trifluoromethyl)phenyl]-4,5-dihydro-5-(trifluoromethyl)-3-isoxazolyl]-N-[2-oxo-2-[(2,2,2-trifluoroethyl)amino]ethyl]-1-naphthalenecarboxamide]
physical stability of the amorphous solid ([2]; pure solid form, conclusion of vapor stress and slurry): physically unstable and readily crystallized
solid form obtained after slurry (by XRPD) ([2]; slurried in methanol\water (1:1) for 5 days at 60° C.): Form B
solid form obtained after vapor stress (by XRPD) ([2]; vapor stressed under acetonitrile at 25° C. for 2 days): Pattern G material

O=C(CNC(=O)c1ccc(C2=NOC(c3cc(Cl)cc(C(F)(F)F)c3)(C(F)(F)F)C2)c2ccccc12)NCC(F)(F)F (centres unmarked) [Form A, 4-[5-[3-chloro-5-(trifluoromethyl)phenyl]-4,5-dihydro-5-(trifluoromethyl)-3-isoxazolyl]-N-[2-oxo-2-[(2,2,2-trifluoroethyl)amino]ethyl]-1-naphthalenecarboxamide]
relative physical stability of solid forms ([1]; in acetonitrile): metastable solid form
hygroscopicity [3]: non-hygroscopic
weight change on exposure to relative humidity [3]: negligible weight change

O=C(CNC(=O)c1ccc(C2=NOC(c3cc(Cl)cc(C(F)(F)F)c3)(C(F)(F)F)C2)c2ccccc12)NCC(F)(F)F (centres unmarked) [Form B, 4-[5-[3-chloro-5-(trifluoromethyl)phenyl]-4,5-dihydro-5-(trifluoromethyl)-3-isoxazolyl]-N-[2-oxo-2-[(2,2,2-trifluoroethyl)amino]ethyl]-1-naphthalenecarboxamide]
relative physical stability of solid forms ([1]; in organic solvent/water mixtures especially methanol/water): most stable solid form
change by XRPD after humidity stress ([4]; 60% relative humidity (25° C.) for 1 month): unchanged by XRPD
change by XRPD after humidity stress ([4]; 75% relative humidity (40° C.) for 1 month): unchanged by XRPD
physical stability of Form B ([4]; pure solid form, conclusion of humidity stress conditions tested): physically stable; also recorded: stable under the conditions tested

O=C(CNC(=O)c1ccc(C2=NOC(c3cc(Cl)cc(C(F)(F)F)c3)(C(F)(F)F)C2)c2ccccc12)NCC(F)(F)F (centres unmarked) [Pattern G solid]
solid form obtained after vacuum drying (Vacuum drying experiment; vacuum drying (36-68 mtorr) at 50° C. for 4 hours): Form A
solid form obtained after vacuum drying (Vacuum drying experiment; vacuum drying (51 mtorr) at 70° C. for 5 hours): solid glass
relative physical stability of solid forms ([1]; in acetonitrile): most stable solid form
